Measurements taken from patent US20250288568A1, “NEW CRYSTAL FORM OF A PDE4 INHIBITOR” (CHIESI FARMACEUTICI S.P.A., priority 2022, published 2025).
Converted amounts (≈) assume the structure as drawn.

Columns and labels:
[1] = Solubility in Simulated Lung Fluid (SLF), saturation shake-flask method; assay type: physicochemical; conditions: for solubility at 0.5 h / solubility at 1 h / solubility at 3 h: simulated lung fluid (SLF), aqueous with cosolvent or surfactant or cyclodextrin, thermodynamic from solid, SLF with 0.02% v/v Tween 80, pH 6.5, 37° C.
Procedure: A study of solubility in SLF for the characterization of the crystal Form 2 and crystal Form A of the compound of formula (I), was performed. The use of SLF, that mimics the physiologically lung fluid, can give a good understanding of the dissolution mechanism and possible in vivo behavior of a product, enhancing the predictive capability of the dissolution testing in terms of bioavailability and therapeutic effectiveness.
The experimental method used is based on saturation shake-flask method. The samples were prepared by adding, respectively, an excess of the crystal Form 2 of the compound of formula (I) and an excess of the crystal Form A of the compound of formula (I), to the solubility medium SLF. The solubility concentration value is the thermodynamic equilibrium concentration, determined by assaying the solute concentration of the filtrate from a saturated solution, using an analytical method by UPLC-MS (MRM quantification; calibration: from 0.01 to 10 μg/ml; every batch have been tested in duplicate and samples have been filtered and diluted 1/10 in duplicate).
The SLF used for the tests were prepared analogously to literature (Simulated Biological Fluids with Possible Application in Dissolution Testing, Dissolution Technologies, 2011, dx.doi.org/10.14227/DT180311P15, table 11, page 2215). To mimic better the lung fluid, a surfactant, particularly Tween 80, has been added (0.02% v/v).
The solubility profile of the crystal Form 2 and the crystal Form A of the compound of formula (I) was determined in SLF adjusted with acetic acid (1M) to pH of 6.5, in order to simulate an inflammation condition in the lung. The experiment was conducted at 37° C.
The following experimental conditions were applied for the SLF dissolution profile study respectively for the crystal Form 2 and the crystal Form A of the compound of formula (I). About 2.5 mg of the crystal Form 2 or the crystal Form A of the compound of formula (I) was dispersed in 2.5 ml of SLF with stirring system. The concentration of material in solution was determined after 0.5, 1 and 3 hours. In each time interval, the vessel stirring was stopped, and 180-250 μl of each samples have been collected and filtered by RC Membrane Syringe Filters 0.45 μm and injected in UPLC apparatus.

[2] = Lung PK after intratracheal administration to Sprague-Dawley rats (PreciseInhale system); assay type: in vivo; conditions: rat, inhaled or intranasal, male Sprague-Dawley rats, 10 μg/lung deposited dose
Procedure: Crystal Form 2 of the compound of formula (I) was intratracheally administered to Sprague-Dawley rats using the PreciseInhale system at the dose of 10 μg/lung deposited dose. Powder aerosols was generated using 40 bar generating pressure. A total number of 24 Sprague-Dawley male rats was used for PK investigation; 8 time points for each study, n=3 rats/time point. Before administration, rats were anesthetized with sevoflurane and endotracheally intubated using appropriate steel catheters. Aerosol administration was performed connecting the catheter to the PreciseInhale system, previously set to deliver 10 μg/lung deposited dose to each animal.
Lung t1/2 is the terminal half-life, calculated by the formula ln(2)/λz, where λz is the first-order rate constant associated with the terminal (log-linear) portion of the curve. Estimated by linear regression of time vs. log concentration; i.e. the time it takes for the concentration of the drug in the lung to be reduced by 50%.
Lung MRTlast is the mean residence time from the time of dosing to the time of the last measurable concentration; i.e. the average time a molecule stays in the lung.

Row | solubility at 0.5 h [1] [µg/mL] | solubility at 1 h [1] [µg/mL] | solubility at 3 h [1] [µg/mL] | Higher solubility in SLF with respect to the crystal Form A ([1]; crystal Form 2 vs crystal Form A, SLF, at 0.5, 1 and 3 hours) | MRT last ([2]; mean residence time to last measurable concentration, read-out: Lung MRTlast) [h] | half-life ([2]; terminal half-life in lung, read-out: Lung t1/2 (converted)) [h] | SMILES
1 | 0.16 (≈ 0.233 µM) | 0.18 (≈ 0.262 µM) | 0.2 (≈ 0.291 µM) |  |  |  | CS(=O)(=O)Nc1ccc(C(=O)O[C@@H](Cc2c(Cl)c[n+]([O-])cc2Cl)c2ccc(OC(F)F)c(OCC3CC3)c2)cc1OCC1CC1 [Crystal Form A, 3,5-dichloro-4-[(2S)-2-[3-(cyclopropylmethoxy)-4-(difluoromethoxy)phenyl]-2-{[3-(cyclopropylmethoxy)-4-(methanesulfonamido)benzoyl]oxy}ethyl]pyridine1-oxide, reference compound]
2 | 0.74 (≈ 1.08 µM) | 0.89 (≈ 1.29 µM) | 0.88 (≈ 1.28 µM) | at least 4.5 fold | 9.4 | 7.7 | CS(=O)(=O)Nc1ccc(C(=O)O[C@@H](Cc2c(Cl)c[n+]([O-])cc2Cl)c2ccc(OC(F)F)c(OCC3CC3)c2)cc1OCC1CC1 (single isomer, unassigned) [Crystal Form 2]
